≈ marks a conversion by molar mass, not a printed value. Where two headings read alike, the source gives them in different places.
Test system: S. aureus clinical isolates
Experiment: microbe, parasite or virus in culture
Format: cell-based

SMILES: Cc1[nH]c(C(=O)Nc2nc3c(OCc4ccccc4)cc(C(=O)O)cc3s2)c(Cl)c1Cl [ULD2]
- MIC (S. aureus ATCC 29213, MSSA / VSSA, test date 2018-10-25 (three repeat lines)): 0.5 µg/mL (≈ 1.05 µM)
- MIC (Staphylococcus aureus, ATCC 29213 / MSSA, S. aureus ATCC 29213, MSSA / VSSA, test date 2018-10-25 (three repeat lines), read-out: MIC): 0.25 µg/mL (≈ 0.525 µM)
- MIC (Staphylococcus aureus, ATCC 29213 / MSSA, S. aureus ATCC 29213, MSSA / VSSA, test date 2018-11-07, read-out: MIC): 0.25 µg/mL (≈ 0.525 µM)
- MIC (Staphylococcus aureus, MRSA / NRS 3 / VISA, S. aureus IHMA 1308243, NRS3, MRSA / VISA, read-out: MIC): 0.5 µg/mL (≈ 1.05 µM)
- MIC (Staphylococcus aureus, MRSA / NRS 4 / VISA, S. aureus IHMA 649380, NRS4, MRSA / VISA, read-out: MIC): 0.25 µg/mL (≈ 0.525 µM)
- MIC (Staphylococcus aureus, MRSA / NRS 18 / VISA, S. aureus IHMA 649386, NRS18, MRSA / VISA, read-out: MIC): 0.5 µg/mL (≈ 1.05 µM)
- MIC (Staphylococcus aureus, MRSA / NRS 19 / VISA, S. aureus IHMA 649387, NRS19, MRSA / VISA, read-out: MIC): 0.25 µg/mL (≈ 0.525 µM)
- MIC (Staphylococcus aureus, MRSA / NRS 21 / VISA, S. aureus IHMA 649388, NRS21, MRSA / VISA, read-out: MIC): 0.25 µg/mL (≈ 0.525 µM)
- MIC (Staphylococcus aureus, MRSA / NRS 22 / USA600 / VISA, S. aureus IHMA 649389, NRS22, MRSA / VISA, USA600, read-out: MIC): 0.5 µg/mL (≈ 1.05 µM)
- MIC (Staphylococcus aureus, MRSA / NRS 23 / VISA, S. aureus IHMA 649390, NRS23, MRSA / VISA, read-out: MIC): 0.5 µg/mL (≈ 1.05 µM)
- MIC (Staphylococcus aureus, MRSA / NRS 24 / VISA, S. aureus IHMA 649391, NRS24, MRSA / VISA, read-out: MIC): 0.25 µg/mL (≈ 0.525 µM)
- MIC (Staphylococcus aureus, MRSA / NRS 26, S. aureus IHMA 649392, NRS26, MRSA / VSSA, read-out: MIC): 0.5 µg/mL (≈ 1.05 µM)
- MIC (Staphylococcus aureus, MRSA / NRS 27 / VISA, S. aureus IHMA 1308248, NRS27, MRSA / VISA, read-out: MIC): 0.5 µg/mL (≈ 1.05 µM)
- MIC (Staphylococcus aureus, MRSA / NRS 29 / VISA, S. aureus IHMA 1308250, NRS29, MRSA / VISA, read-out: MIC): 0.25 µg/mL (≈ 0.525 µM)
- MIC (Staphylococcus aureus, MRSA / NRS 37 / VISA, S. aureus IHMA 1308251, NRS37, MRSA / VISA, read-out: MIC): 0.5 µg/mL (≈ 1.05 µM)
- MIC (Staphylococcus aureus, MRSA / NRS 54, S. aureus IHMA 1308253, NRS54, MRSA / VSSA* (*Expected VAN intermediate, confirmed VAN susceptible twice), test date 2018-11-07, read-out: MIC): 0.12 µg/mL (≈ 0.252 µM)
- MIC (Staphylococcus aureus, MRSA / NRS 56 / VISA, S. aureus IHMA 1308254, NRS56, MRSA / VISA, read-out: MIC): 0.25 µg/mL (≈ 0.525 µM)
- MIC (Staphylococcus aureus, MRSA / USA100 / VRSA, S. aureus IHMA 672230, VRS1, MRSA / VRSA, USA100, read-out: MIC): 0.25 µg/mL (≈ 0.525 µM)
- MIC (Staphylococcus aureus, MRSA / USA100 / VRSA, S. aureus IHMA 672231, VRS2, MRSA / VRSA, USA100, read-out: MIC): 0.25 µg/mL (≈ 0.525 µM)
- MIC (Staphylococcus aureus, MRSA / USA100 / VRSA, S. aureus IHMA 672234, VRS4, MRSA / VRSA, USA100, read-out: MIC): 0.25 µg/mL (≈ 0.525 µM)
- MIC (Staphylococcus aureus, MRSA / USA100 / VRSA, S. aureus IHMA 672235, VRS5, MRSA / VRSA, USA100, read-out: MIC): 0.25 µg/mL (≈ 0.525 µM)
- MIC (Staphylococcus aureus, MRSA / USA100 / VRSA, S. aureus IHMA 672237, VRS7, MRSA / VRSA, USA100, read-out: MIC): 0.25 µg/mL (≈ 0.525 µM)
- MIC (Staphylococcus aureus, MRSA / USA100 / VRSA, S. aureus IHMA 672238, VRS8, MRSA / VRSA, USA100, read-out: MIC): 0.25 µg/mL (≈ 0.525 µM)
- MIC (Staphylococcus aureus, MRSA / USA100 / VRSA, S. aureus IHMA 672239, VRS9, MRSA / VRSA, USA100, read-out: MIC): 0.25 µg/mL (≈ 0.525 µM)
- MIC (Staphylococcus aureus, MRSA / USA100 / VRSA, S. aureus IHMA 1308256, VRS10, MRSA / VRSA, USA100, read-out: MIC): 0.5 µg/mL (≈ 1.05 µM)
- MIC (Staphylococcus aureus, MRSA / USA100 / VRSA, S. aureus IHMA 1308258, VRS11b, MRSA / VRSA, USA100, read-out: MIC): 0.25 µg/mL (≈ 0.525 µM)
- MIC (Staphylococcus aureus, MRSA / USA800 / VRSA, S. aureus IHMA 672233, VRS3b, MRSA / VRSA, USA800, read-out: MIC): 0.06 µg/mL (≈ 0.126 µM)
- MIC (Staphylococcus aureus, MRSA / VISA / VRSA, all isolates of the panel (MRSA, VISA, VRSA), read-out: MIC against all tested S. aureus clinical isolates): ≤ 1 µg/mL
- MIC (Staphylococcus aureus, MRSA, S. aureus IHMA 1569509, MRSA / VSSA, read-out: MIC): 0.12 µg/mL (≈ 0.252 µM)
- MIC (Staphylococcus aureus, MRSA, S. aureus IHMA 1575268, MRSA / VSSA, read-out: MIC): 0.25 µg/mL (≈ 0.525 µM)
- MIC (Staphylococcus aureus, MRSA, S. aureus IHMA 1575629, MRSA / VSSA, read-out: MIC): 0.25 µg/mL (≈ 0.525 µM)
- MIC (Staphylococcus aureus, MRSA, S. aureus IHMA 1577820, MRSA / VSSA, read-out: MIC): 0.5 µg/mL (≈ 1.05 µM)
- MIC (Staphylococcus aureus, MRSA, S. aureus IHMA 1580300, MRSA / VSSA, read-out: MIC): 0.12 µg/mL (≈ 0.252 µM)
- MIC (Staphylococcus aureus, MRSA, S. aureus IHMA 1580940, MRSA / VSSA, read-out: MIC): 0.5 µg/mL (≈ 1.05 µM)
- MIC (Staphylococcus aureus, MRSA, S. aureus IHMA 1582100, MRSA / VSSA, read-out: MIC): 0.25 µg/mL (≈ 0.525 µM)
- MIC (Staphylococcus aureus, MRSA, S. aureus IHMA 1583795, MRSA / VSSA, read-out: MIC): 1 µg/mL (≈ 2.1 µM)
- MIC (Staphylococcus aureus, MRSA, S. aureus IHMA 1584223, MRSA / VSSA, read-out: MIC): 0.5 µg/mL (≈ 1.05 µM)
- MIC (Staphylococcus aureus, MRSA, S. aureus IHMA 1585316, MRSA / VSSA, read-out: MIC): 0.25 µg/mL (≈ 0.525 µM)
- MIC (Staphylococcus aureus, MRSA, S. aureus IHMA 1586780, MRSA / VSSA, read-out: MIC): 0.25 µg/mL (≈ 0.525 µM)
- MIC (Staphylococcus aureus, MRSA, S. aureus IHMA 1587322, MRSA / VSSA, read-out: MIC): 0.25 µg/mL (≈ 0.525 µM)
- MIC (Staphylococcus aureus, MRSA, S. aureus IHMA 1588127, MRSA / VSSA, read-out: MIC): 0.25 µg/mL (≈ 0.525 µM)
- MIC (Staphylococcus aureus, MRSA, S. aureus IHMA 1591462, MRSA / VSSA, read-out: MIC): 0.12 µg/mL (≈ 0.252 µM)
- MIC (Staphylococcus aureus, MRSA, S. aureus IHMA 1592755, MRSA / VSSA, read-out: MIC): 0.5 µg/mL (≈ 1.05 µM)
- MIC (Staphylococcus aureus, MRSA, S. aureus IHMA 1592776, MRSA / VSSA, read-out: MIC): 0.25 µg/mL (≈ 0.525 µM)
- MIC (Staphylococcus aureus, MRSA, S. aureus IHMA 1597106, MRSA / VSSA, read-out: MIC): 0.5 µg/mL (≈ 1.05 µM)
- MIC (Staphylococcus aureus, MRSA, S. aureus IHMA 1602095, MRSA / VSSA, read-out: MIC): 0.25 µg/mL (≈ 0.525 µM)
- MIC (Staphylococcus aureus, MRSA, S. aureus IHMA 1611170, MRSA / VSSA, read-out: MIC): 0.25 µg/mL (≈ 0.525 µM)
- MIC (Staphylococcus aureus, MRSA, S. aureus IHMA 1611612, MRSA / VSSA, read-out: MIC): 0.25 µg/mL (≈ 0.525 µM)
- MIC (Staphylococcus aureus, MRSA, S. aureus IHMA 1612228, MRSA / VSSA, read-out: MIC): 0.25 µg/mL (≈ 0.525 µM)
- MIC (Staphylococcus aureus, MRSA, S. aureus IHMA 1620441, MRSA / VSSA, read-out: MIC): 0.25 µg/mL (≈ 0.525 µM)
- MIC (Staphylococcus aureus, MRSA, S. aureus IHMA 1621638, MRSA / VSSA, read-out: MIC): 0.5 µg/mL (≈ 1.05 µM)
- MIC (Staphylococcus aureus, MRSA, S. aureus IHMA 1622252, MRSA / VSSA, read-out: MIC): 0.5 µg/mL (≈ 1.05 µM)
- MIC (Staphylococcus aureus, MRSA, S. aureus IHMA 1622527, MRSA / VSSA, read-out: MIC): 0.25 µg/mL (≈ 0.525 µM)
- MIC (Staphylococcus aureus, MRSA, S. aureus IHMA 1666371, MRSA / VSSA, read-out: MIC): 0.25 µg/mL (≈ 0.525 µM)
- MIC (Staphylococcus aureus, MRSA, S. aureus IHMA 1695391, MRSA / VSSA, read-out: MIC): 0.12 µg/mL (≈ 0.252 µM)
- MIC (Staphylococcus aureus, MRSA, S. aureus IHMA 1703428, MRSA / VSSA, read-out: MIC): 0.5 µg/mL (≈ 1.05 µM)
- MIC (Staphylococcus aureus, MRSA, S. aureus IHMA 1720350, MRSA / VSSA, read-out: MIC): 0.5 µg/mL (≈ 1.05 µM)
- MIC (Staphylococcus aureus, MRSA, S. aureus IHMA 1732989, MRSA / VSSA, read-out: MIC): 0.5 µg/mL (≈ 1.05 µM)
- MIC (Staphylococcus aureus, MRSA, S. aureus IHMA 1742231, MRSA / VSSA, read-out: MIC): 0.12 µg/mL (≈ 0.252 µM)
- MIC (Staphylococcus aureus, MRSA, S. aureus IHMA 1766357, MRSA / VSSA, read-out: MIC): 0.12 µg/mL (≈ 0.252 µM)
- MIC (Staphylococcus aureus, MSSA / NRS 12 / VISA, S. aureus IHMA 1308244, NRS12, MSSA / VISA, read-out: MIC): 0.5 µg/mL (≈ 1.05 µM)
- MIC (Staphylococcus aureus, MSSA / NRS 13 / VISA, S. aureus IHMA 1308245, NRS13, MSSA / VISA, read-out: MIC): 0.5 µg/mL (≈ 1.05 µM)
